Earlier results, collected in patent US20040167197A1, “Compositions, combinations, and methods for treating cardiovascular conditions and other associated conditions” (priority 2003, published 2004).

Test system: rat model of cardiac hypertrophy and dysfunction

Compound: COc1nccc(-c2c(-c3ccc(F)cc3)ncn2[C@H]2CC[C@H](O)CC2)n1 [trans-1-(4-hydroxycyclohexyl)-4-(4-fluorophenylmethoxypyridimidin-4-yl)imidazole]
- hypertensive end-organ damage: protected against
- plasma tumor necrosis factor (TNF-α): reduced
- survival: improved
